Laboratory results from ChEMBL document CHEMBL6074633, “Assessing the inhibitory effects of some secondary amines, thioureas and 1,3-dimethyluracil conjugates of (-)-cytisine and thermopsine on the RNA-dependent RNA polymerase of SARS-CoV-1 and SARS-CoV-2” (Bioorg Med Chem Lett, 2024).
Activity calls are given as the source filed them. The rule behind the calls is not given here.

Legend:
SARS-CoV-2 [1] = test: Antiviral activity against SARS CoV-2 replicon-based SRIP; type: functional, organism-based; conditions: Severe acute respiratory syndrome coronavirus 2
SARS-CoV-2 [2] = type: functional, organism-based; conditions: Severe acute respiratory syndrome coronavirus 2; Calu-3; dose <= 1.0 µM, time 120.0 hrs
[3] = biological target: Replicase polyprotein 1ab (Severe acute respiratory syndrome coronavirus 2, UniProt P0DTD1); test: (§1) Inhibition of SARS CoV-2 RdRp incubated for 2 hrs by fluorescence based assay
[4] = biological target: Replicase polyprotein 1ab (Severe acute respiratory syndrome coronavirus 2) (UniProt P0DTD1); test: as §1
SARS-CoV [5] = type: functional, organism-based; conditions: Severe acute respiratory syndrome-related coronavirus; Calu-3; dose <= 1.0 µM, time 96.0 hrs
[6] = Cytotoxicity against human Calu-3 cells assessed as cell viability incubated for 96 hrs by MTT assay; type: toxicity, cell-based
SARS-CoV [7] = type: functional, organism-based; conditions: Severe acute respiratory syndrome-related coronavirus
SARS-CoV [8] = type: functional, organism-based; conditions: Severe acute respiratory syndrome-related coronavirus; Calu-3; dose <= 1.0 µM, time 120.0 hrs
SARS-CoV-2 [9] = type: functional, organism-based; conditions: Severe acute respiratory syndrome coronavirus 2; Calu-3; dose <= 1.0 µM, time 96.0 hrs
in vitro = conditions: human, Calu-3 cells
[10] = biological target: Replicase polyprotein 1ab (Severe acute respiratory syndrome coronavirus 2) (UniProt P0DTD1); test: Inhibition of SARS CoV-2 RdRp at 10 uM incubated for 2 hrs by fluorescence based assay relative to control
SARS-CoV-2 [11] = type: functional, organism-based

## CCC(CC)COC(=O)[C@H](C)N[P@](=O)(OC[C@H]1O[C@@](C#N)(c2ccc3c(N)ncnn23)[C@H](O)[C@@H]1O)Oc1ccccc1 [REMDESIVIR]
SARS-CoV-2 [1]
  EC50: 170 nM

## Cn1cc(CNc2ccc3n(c2=O)C[C@H]2C[C@@H]3CN(Cc3ccccc3)C2)c(=O)n(C)c1=O
SARS-CoV-2 [2]
  Activity: Active
[3]
  IC50: 7800 nM
[4]
  inhibition: Dose-dependent-effect
SARS-CoV [5]
  Activity: Active
[6]
  CC50 at 96 h: > 100000 nM
SARS-CoV [7]; Calu-3, 96 h
  EC50: 120 nM
SARS-CoV [7]; Calu-3, dose 0.1-10 µM, time 96.0 hrs
  Activity: Dose-dependent-effect
SARS-CoV [8]
  Activity: Active
SARS-CoV-2 [9]
  Activity: Active
In vitro
  selectivity ratio: > 68
[10]
  inhibition: 64%
SARS-CoV-2 [11]; Severe acute respiratory syndrome coronavirus 2, Calu-3, 96 h
  EC50: 1470 nM
SARS-CoV-2 [11]; Severe acute respiratory syndrome coronavirus 2, Calu-3, dose 0.1-10 µM, time 96.0 hrs
  Activity: Dose-dependent-effect

## C=CCNC(=S)N1C[C@@H]2C[C@H](C1)c1ccc([N+](=O)[O-])c(=O)n1C2
[10]
  inhibition: < 38%

## CN1C[C@@H]2C[C@H](C1)c1ccc(NCc3ccccc3O)c(=O)n1C2
[10]
  inhibition: < 38%

## CC(C)NC(=S)Nc1ccc2n(c1=O)C[C@H]1C[C@@H]2CN(C)C1
[10]
  inhibition: < 38%

## O=c1cccc2n1C[C@H]1C[C@@H]2CN(C(=S)Nc2ccccc2)C1
[10]
  inhibition: < 38%

## CC(C)C[C@H](NC(=O)OCc1ccccc1)C(=O)N[C@@H](C[C@@H]1CCNC1=O)C(O)S(=O)(=O)O (some centres undefined)
SARS-CoV-2 [1]
  EC50: 170 nM

## COC(=O)CN1C[C@@H]2C[C@H](C1)c1ccc(NCc3cn(C)c(=O)n(C)c3=O)c(=O)n1C2
[10]
  inhibition: < 38%

## Cn1cc(CNc2ccc3n(c2=O)C[C@H]2C[C@@H]3CN3CCCC[C@@H]23)c(=O)n(C)c1=O
[10]
  inhibition: < 38%

## O=c1ccc(Cl)c2n1C[C@H]1C[C@@H]2CN(C(=S)Nc2ccccc2)C1
[10]
  inhibition: < 38%

## CN1C[C@@H]2C[C@H](C1)c1ccc(NC/C=C/c3ccccc3)c(=O)n1C2
[10]
  inhibition: < 38%

## CCOC(=O)CNC(=S)Nc1ccc2n(c1=O)C[C@H]1C[C@@H]2CN(C)C1
[10]
  inhibition: < 38%
